# According to PubChem BioAssay (NCI):
#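 Protocol summary: plate cells (96-well), add compound at 5 concentrations, incubate 48 h, interpolate endpoints linearly. GI50 is the concentration that inhibits growth by half. TGI: concentration producing complete growth inhibition.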
# Tests used:
# Test in all cases: growth of human tumour cells (NCI), 48 h
# HOP-18 NSCLC = system: HOP-18 NSCLC
# KM20L2 colon = system: KM20L2 colon
# LXFL 529 NSCLC = system: LXFL 529 NSCLC
# M19-MEL melanoma = system: M19-MEL melanoma
# DMS 273 small cell lung = system: DMS 273 small cell lung
# RXF-631 renal = system: RXF-631 renal
# MCF7 breast = system: MCF7 breast
# MDA-N = system: MDA-N
# XF 498 CNS = system: XF 498 CNS
SMILES,TGI (HOP-18 NSCLC),TGI (KM20L2 colon),TGI (LXFL 529 NSCLC),TGI (M19-MEL melanoma),TGI (DMS 273 small cell lung),TGI (MCF7 breast),also measured
Nn1c(N=Nc2c(O)[nH]c3c(Cl)cc(Cl)cc23)n[nH]c1=S,> 100 µM,> 100 µM,> 100 µM,> 100 µM,,,
Cc1cccc(C(C)(C)C)c1NC(=O)CC1Sc2ccccc2NC1=O (configuration not stated),> 100 µM,> 100 µM,> 100 µM,> 100 µM,> 100 µM,,TGI (RXF-631 renal): > 100 µM
NC(=O)c1cccc([C@@H]2O[C@H](CO)[C@@H](O)[C@H]2O)c1,68.6 µM,> 94.1 µM,,60.7 µM,22.9 µM,> 100 µM,TGI (MDA-N): > 100 µM; TGI (RXF-631 renal): 43.2 µM; TGI (XF 498 CNS): 7 µM
O=[N+]([O-])c1cccc(C2=NOC3C4CCC(C4)C23)c1 (configuration not stated),> 100 µM,,> 100 µM,> 100 µM,> 100 µM,,TGI (RXF-631 renal): > 100 µM
O=C1OC(OCC#CCOC2OC(=O)C(Cl)=C2Cl)C(Cl)=C1Cl (configuration not stated),,,,,,21.8 µM,
Clc1nc(Cl)c2ncn(Cc3ccc(Cn4cnc5c(Cl)nc(Cl)nc54)cc3)c2n1,,,,,,14.9 µM,GI50 (MCF7 breast): 2.22 µM
Cc1cc(OCc2nnc3n2N=C(c2ccc(Cl)cc2Cl)CS3)ccc1Cl,,,,,,> 100 µM,GI50 (MCF7 breast): 39.1 µM
CN1C(Cl)=NS(=O)(=O)c2ccccc21,,,,,,> 100 µM,TGI (MDA-N): > 100 µM
COc1ccc2nc(NC(=O)C(=O)C(C#N)c3ccc(Cl)c(Cl)c3)sc2c1 (configuration not stated),,> 100 µM,> 100 µM,> 100 µM,> 100 µM,,TGI (RXF-631 renal): > 100 µM; TGI (XF 498 CNS): > 100 µM
Cc1cccc2nc3cccc(C(=O)NCCN(C)C)c3nc12,84 µM,,,3.25 µM,4.17 µM,,
COC(=O)C1=C(c2ccc3c(c2)OCO3)OC(c2cc(OC)c(OC)c(OC)c2)C1 (configuration not stated),> 100 µM,,> 100 µM,> 100 µM,58.8 µM,,TGI (XF 498 CNS): > 100 µM
CCOC(=O)C1=C(Nc2ccc(Cl)c(Cl)c2)OC/C1=N\NS(=O)(=O)c1ccc(C)cc1,> 100 µM,> 100 µM,> 100 µM,> 100 µM,,,TGI (RXF-631 renal): > 100 µM; TGI (XF 498 CNS): > 100 µM
Cc1cc(N(CCC#N)CCC#N)ccc1C=Nc1ccc(C(=O)NN2C(=O)/C(=C/c3ccc(N(CCC#N)CCC#N)cc3)N=C2c2cc([N+](=O)[O-])ccc2Cl)cc1,> 100 µM,> 100 µM,> 100 µM,> 100 µM,> 100 µM,,TGI (RXF-631 renal): > 100 µM; TGI (XF 498 CNS): > 100 µM
Cc1nc(Nc2nc3ccccc3o2)nc(-c2cccc([N+](=O)[O-])c2)c1C(=O)Nc1ccc(F)c(Cl)c1,,,,,,9.73 µM,GI50 (MCF7 breast): 2.04 µM
O=C(CC1C(=O)Nc2ccccc2S1=O)Nc1ccc(Cl)cc1 (configuration not stated),,> 100 µM,> 100 µM,,> 100 µM,,
NCCSCCc1ccccc1,,,,,,> 100 µM,TGI (MDA-N): > 100 µM
COc1ccc(Nc2cc(C)nc(N3CCN(c4ccnc5cc(Cl)ccc45)CC3)n2)cc1,,,,,,4.51 µM,GI50 (MCF7 breast): 0.284 µM
CNC(=O)OCC1C2=C(C(=O)C(C)=C(N)C2=O)N2CC3C(N3C)C12OC (configuration not stated),,,,,,> 100 µM,
N#Cc1cc(S(=O)(=O)Nc2nc3ccccc3s2)c(SCc2ccccc2)cc1Cl,,,,,,> 100 µM,GI50 (MCF7 breast): 30.7 µM

SMILES,TGI (HOP-18 NSCLC),TGI (KM20L2 colon),TGI (LXFL 529 NSCLC),TGI (M19-MEL melanoma),TGI (DMS 273 small cell lung),TGI (MCF7 breast),also measured
C/C=C(\C)C(=O)N[C@H]1C(O)C[C@]2(C)C3CC[C@@]4(C)C(CC[C@@H]4C(C)N(C)C)C3CCC2C1O (some centres not stated),,,,,,17.4 µM,GI50 (MCF7 breast): 2.89 µM
CC1(C)OC(=O)C=C([O-])O1.CC1(C)OC(=O)C=C([O-])O1.CC[O-].CC[O-].[Ti+4],> 100 µM,> 100 µM,> 100 µM,> 100 µM,,,GI50 (HOP-18 NSCLC): > 100 µM; GI50 (KM20L2 colon): > 100 µM; GI50 (LXFL 529 NSCLC): > 100 µM; GI50 (M19-MEL melanoma): > 100 µM
Cc1ccccc1-n1c(C)nc(-c2ccccc2)cc1=O,> 100 µM,> 100 µM,> 100 µM,> 100 µM,> 100 µM,,TGI (RXF-631 renal): > 100 µM
COc1ccc(C2=CC(c3ccc(OC)c(OC)c3)c3c(c4ccccc4oc3=O)O2)cc1OC (configuration not stated),,,,,,> 100 µM,GI50 (MCF7 breast): 0.424 µM
O=C1C=CC(CC(=O)c2ccc3ccccc3c2)O1 (configuration not stated),> 100 µM,34.7 µM,32.3 µM,> 100 µM,45.3 µM,,TGI (XF 498 CNS): > 100 µM
Cc1ccc(NC(=O)C(=O)Cc2cc[n+]([O-])cc2)cc1,> 100 µM,> 100 µM,> 100 µM,> 100 µM,> 100 µM,,TGI (XF 498 CNS): > 100 µM
CC(C)COC(=O)c1ccc2[nH]c(O)c(C=Nc3ccc(S(N)(=O)=O)cc3)c2c1,,,,,,4.5 µM,GI50 (MCF7 breast): 1.24 µM
CC(Br)C(=O)Nc1ccc(C(=O)O)c(O)c1 (configuration not stated),,,,,,> 100 µM,TGI (MDA-N): > 100 µM
COC1=C2CC(C)CC(OC)C(O)C(C)/C=C(\C)C(OC(N)=O)C(OC)/C=C\C=C(/C)C(=O)NC(=C(/C=N/N3CCCCC3)C1=O)C2=O (configuration not stated),27.2 µM,10.1 µM,24.1 µM,19 µM,27.6 µM,,TGI (RXF-631 renal): 35.1 µM; TGI (XF 498 CNS): 19.9 µM
N#CC1=C(Cl)NC(Cl)=C(C#N)C1c1c(Cl)cccc1Cl,91.5 µM,76.9 µM,> 100 µM,,34.5 µM,,TGI (XF 498 CNS): 35.5 µM
O=C1NCCS(=O)(=O)/C1=C\C=C\c1cccc(C(F)(F)F)c1,,,,,,11 µM,GI50 (MCF7 breast): 0.188 µM
Cc1cccc(Nc2cnc(N)nc2N)c1,,,,,,> 100 µM,TGI (MDA-N): > 100 µM
CC12Oc3ccc4ccccc4c3CC1Cc1c(ccc3ccccc13)O2 (configuration not stated),98.7 µM,> 100 µM,> 100 µM,> 100 µM,74.9 µM,,
CCc1nc(N)nc(N)c1-c1ccc(Cl)c(N=CN(C)C)c1,,,,,,> 100 µM,TGI (MDA-N): > 100 µM
CC(C)c1cc(OCC(O)CO)cc(C(C)C)c1 (configuration not stated),> 100 µM,> 100 µM,> 100 µM,> 100 µM,> 100 µM,,TGI (XF 498 CNS): > 100 µM
Cn1c(=O)c(Oc2ccc(F)cc2F)cc2cnc(NCCS(C)(=O)=O)nc21,,,,,,> 25 µM,GI50 (MCF7 breast): > 25 µM
COC(=O)C1=CC2OC1(C)CCC2=O (configuration not stated),,> 100 µM,> 100 µM,,> 100 µM,,TGI (XF 498 CNS): > 100 µM
O=C(Nc1ccc(Cl)c(Cl)c1)OCCN1c2ccccc2Sc2ccccc21,,,,,,> 10 µM,TGI (MDA-N): > 10 µM
O=C(Nc1ccc(I)cc1F)c1cc(Cl)ccc1O,,,,,,> 19.8 µM,GI50 (MCF7 breast): 0.552 µM
